From patent US6624203B1, “Nucleic acid bases used in ophthalmic solutions” (priority 2001, dated 2003)

What was measured:
[1] = test system: C. albicans; assay: In vitro microbicidal activity against C. albicans (log reduction vs inoculum control); type: cell-based; conditions: 0.2% phosphate buffer, isotonic NaCl, PHMB 0.0001%, pH 7.2
Method: A formulation containing guanine was prepared in a 0.2% phosphate buffer. The solution was made isotonic with sodium chloride and preserved with polyhexamethylene biquanide at 0.0001%. The pH was adjusted to 7.2 with either 1 N sodium hydroxide or 1 N hydrochloric acid. The in vitro microbicidal activity of the test and control solution was determined by exposing C. albicans to 10 ml of each solution at room temperature for 4 and 24 hours. Subsequently, an aliquot of each solution was serial diluted onto agar plates and incubated for 48 hours at elevated temperatures. At the conclusion of the incubation period the plates are examined for the development of colonies. The log reduction was determined based on a comparison to the inoculum control. The following table provides the results of the in vitro studies.

[2] = test system: Acanthamoeba castellanii cysts; assay: In vitro anti-acanthamoeba activity (serial dilution, viable trophozoites, log reduction); type: cell-based; conditions: 0.5% guanine with PHMB 0.02% versus control without guanine
Method: A formulation containing 0.5% guanine was prepared in a 0.2% glycine buffer at pH 7.35. The solution was preserved with polyhexamethylene biquanide at 0.02%. A similar control was prepared except without the guanine. The in vitro anti-acanthamoeba activity of the test and control solutions was determined by exposing Acanthamoeba castellanii cysts to 2 ml of each solution at room temperature for 10 minutes. Subsequently, an aliquot of each solution was serial diluted in duplicate and incubated for 14 days. At the conclusion of the incubation period, the dilutions were examined for viable Acanthamoeba trophozoites. The log reduction was determined based on a comparison to the inoculum control. A negative control was performed to verify the technique. The following table provides the results of the in vitro studies.

SMILES: Nc1nc2nc[nH]c2c(=O)[nH]1 [Guanine, guanine]
- log reduction, 4 hours ([1]; C. albicans exposed to 10 ml solution at room temperature for 4 hours): 0.97
- log reduction, 24 hours ([1]; C. albicans exposed to 10 ml solution at room temperature for 24 hours): 3.05
- Effect of guanine on activity of preserved formulations against Acanthamoeba [2]: improves the activity of preserved formulations against Acanthamoeba
